Like-named read-outs stand apart in the source and are kept apart here.
Legend:
[1] = test system: NCI-H1299 cells; experiment: MTT based cell viability assay on NCI-H1299 cells; settings: for IC50: read-out: IC50, growth inhibition of NCI-H1299 cells
Procedure, shortened: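 Viability read-out was MTT reduction (0.5 mg/mL, 4 h, absorbance 552/630/690 nm) after 3-day compound exposure at 37 °C of NCI-H1299 cells seeded at 1000 per well. Dilutions spanned 10 μM–0.01 μM in DMSO, final DMSO 1‰. Survival-versus-concentration curves were fitted sigmoidally to give IC50.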

[2] = test system: LoVo cells; experiment: MTT based cell viability assay on LoVo cells; settings: for IC50: Homo sapiens, LoVo, 72 h, 3 d, read-out: IC50, growth inhibition of LoVo cells
Procedure, shortened: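 Inhibition of LoVo proliferation was derived as IC50 from a sigmoidal dose-response fit of cell survival. Readout was MTT (0.5 mg/mL, 4 h) with absorbance at 552/630/690 nm, after 3-day treatment at 37 °C. Eight-point series from 10 μM to 0.01 μM, DMSO control, 1% DMSO final.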

[3] = biological target: Wee1 (h) (Homo sapiens, UniProt P30291); experiment: Wee1 kinase (h) detection method, [γ-33P]-ATP filter assay; assay type: biochemical
[4] = Homo sapiens, NCI-H1299, NCI-H1299 cells

Chain of Wee1 (h) (P30291 whole entry): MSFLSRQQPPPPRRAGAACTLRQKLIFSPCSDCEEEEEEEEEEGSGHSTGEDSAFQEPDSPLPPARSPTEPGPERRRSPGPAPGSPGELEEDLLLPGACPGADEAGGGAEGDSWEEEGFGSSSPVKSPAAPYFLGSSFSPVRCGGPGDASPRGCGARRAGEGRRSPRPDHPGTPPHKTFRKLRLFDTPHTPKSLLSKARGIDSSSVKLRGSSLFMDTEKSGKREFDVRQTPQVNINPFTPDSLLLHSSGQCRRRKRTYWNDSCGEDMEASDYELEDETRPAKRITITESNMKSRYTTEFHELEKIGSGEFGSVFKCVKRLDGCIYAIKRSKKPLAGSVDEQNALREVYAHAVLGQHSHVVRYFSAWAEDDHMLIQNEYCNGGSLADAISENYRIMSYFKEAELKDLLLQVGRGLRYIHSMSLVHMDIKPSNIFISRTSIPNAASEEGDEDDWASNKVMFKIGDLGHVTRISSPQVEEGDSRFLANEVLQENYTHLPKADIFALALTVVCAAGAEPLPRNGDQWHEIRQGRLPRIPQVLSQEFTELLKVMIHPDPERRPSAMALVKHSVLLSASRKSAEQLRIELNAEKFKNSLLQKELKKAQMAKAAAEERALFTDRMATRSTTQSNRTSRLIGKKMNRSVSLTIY

| Compound | IC50 ([1]; Homo sapiens, NCI-H1299 cells) [nM] | IC50 [2] [nM] | Inh. (%) of Wee1 kinase enzyme activity ([3]; C 1 μm compound) [%] | Inh. (%) of Wee1 kinase enzyme activity ([3]; C 0.01 μm compound) [%] | Inh. (%) of Wee1 kinase enzyme activity ([3]; C 0.1 μm compound) [%] | IC50 [1, 4] [nM] | IC50 ([1]; NCI-H1299 cells) [nM] | inhibitory effect on the growth of NCI-H1299 cells compared with AZD1775 [1] | inhibitory effect on the growth of LoVo cells compared with AZD1775 [2] |
| --- | --- | --- | --- | --- | --- | --- | --- | --- | --- |
| Cc1cc(Nc2ncc3c(n2)N2CCN=C2N(c2c(C)cccc2F)C3=O)ccc1N1CCN(C)CC1 [Example 62, 6-(2-Fluoro-6-methylphenyl)-2-((3-methyl-4-(4-methylpiperazin-1-yl)phenyl)amino)-8,9-dihydroimidazo[1,2-a]pyrimido[5,4-e]pyrimidin-5(6H)-one] | 925 | 194 | 83 |  |  |  |  |  |  |
| CC(C)N1CCN(c2ccc(Nc3ncc4c(n3)N3CCN=C3N(c3c(Cl)cccc3Cl)C4=O)cc2)CC1 [Example 63, 6-(2,6-Dichlorophenyl)-2-((4-(4-isopropylpiperazin-1-yl)phenyl)amino)-8,9-dihydroimidazo[1,2-a]pyrimido[5,4-e]pyrimidin-5(6H)-one] | 360 | 76.8 | 99 | 17 | 76 |  |  |  |  |
| C[C@@H]1CN(c2ccc(Nc3ncc4c(n3)N3CCN=C3N(c3c(Cl)cccc3Cl)C4=O)cc2)C[C@H](C)N1C [Example 64, 6-(2,6-Dichlorophenyl)-2-((4-((3S,5R)-3,4,5-trimethylpiperazin-1-yl)phenyl)amino)-8,9-dihydroimidazo[1,2-a]pyrimido[5,4-e]pyrimidin-5(6H)-one] | 177 | 96.5 | 100 | 52 | 88 |  |  |  |  |
| CC(C)N1[C@H](C)CN(c2ccc(Nc3ncc4c(n3)N3CCN=C3N(c3c(Cl)cccc3Cl)C4=O)cc2)C[C@@H]1C [Example 65, 6-(2,6-Dichlorophenyl)-2-((4-((3S,5R)-4-isopropyl-3,5-dimethylpiperazin-1-yl)phenyl)amino)-8,9-dihydroimidazo[1,2-a]pyrimido[5,4-e]pyrimidin-5(6H)-one] | 404 | 102 | 98 | 18 | 68 |  |  |  |  |
| C[C@@H]1CN(c2ccc(Nc3ncc4c(n3)N3CCN=C3N(c3c(Cl)cccc3Cl)C4=O)c(F)c2)C[C@H](C)N1C [Example 66, 6-(2,6-Dichlorophenyl)-2-((2-fluoro-4-((3S,5R)-3,4,5-trimethylpiperazin-1-yl)phenyl)amino)-8,9-dihydroimidazo[1,2-a]pyrimido[5,4-e]pyrimidin-5(6H)-one] | > 10000 | > 100000 | 0 |  |  |  |  |  |  |
| C[C@@H]1CN(c2ccc(Nc3ncc4c(n3)N3CCN=C3N(c3c(Cl)cccc3Cl)C4=O)c(Cl)c2)C[C@H](C)N1C [Example 67, 6-(2,6-Dichlorophenyl)-2-((2-chloro-4-((3S,5R)-3,4,5-trimethylpiperazin-1-yl)phenyl)amino)-8,9-dihydroimidazo[1,2-a]pyrimido[5,4-e]pyrimidin-5(6H)-one] | > 10000 | > 100000 | 24 |  |  |  |  |  |  |
| C[C@@H]1CN(c2ccc(Nc3ncc4c(n3)N3CCN=C3N(c3c(Cl)cccc3Cl)C4=O)c(C(F)(F)F)c2)C[C@H](C)N1C [Example 68, 6-(2,6-Dichlorophenyl)-2-((2-trifluoromethyl-4-((3S,5R)-3,4,5-trimethylpiperazin-1-yl)phenyl)amino)-8,9-dihydroimidazo[1,2-a]pyrimido[5,4-e]pyrimidin-5(6H)-one] | > 10000 | > 100000 | 6 |  |  |  |  |  |  |
| CN1CCN(c2ccc(Nc3ncc4c(n3)N3CCN=C3N(c3c(Cl)cccc3Cl)C4=O)cc2F)CC1 [Example 69, 6-(2,6-Dichlorophenyl)-2-((3-fluoro-4-(4-methylpiperazin-1-yl)phenyl)amino)-8,9-dihydroimidazo[1,2-a]pyrimido[5,4-e]pyrimidin-5(6H)-one] |  | 105 | 97 | 24 | 73 | 426 |  |  |  |
| C[C@@H]1CN(c2ccc(Nc3ncc4c(n3)N3CCN=C3N(c3c(Cl)cccc3Cl)C4=O)cc2F)C[C@H](C)N1C [Example 70, 6-(2,6-Dichlorophenyl)-2-((3-fluoro-4-((3S,5R)-3,4,5-trimethylpiperazin-1-yl)phenyl)amino)-8,9-dihydroimidazo[1,2-a]pyrimido[5,4-e]pyrimidin-5(6H)-one] |  | 124 | 99 | 17 | 69 | 448 |  |  |  |
| CN1CCN(c2ccc(Nc3ncc4c(n3)N3CCN=C3N(c3c(Cl)cccc3Cl)C4=O)cc2Cl)CC1 [Example 71, 2-((3-chloro-4-(4-methylpiperazin-1-yl)phenyl)amino)-6-(2,6-dichlorophenyl)-8,9-dihydroimidazo[1,2-a]pyrimido[5,4-e]pyrimidin-5(6H)-one] |  | 44.3 | 98 | 36 | 74 |  | 603 |  |  |
| C[C@@H]1CN(c2ccc(Nc3ncc4c(n3)N3CCN=C3N(c3c(Cl)cccc3Cl)C4=O)cc2Cl)C[C@H](C)N1C [Example 72, 6-(2,6-Dichlorophenyl)-2-((3-chloro-4-((3S,5R)-3,4,5-trimethylpiperazin-1-yl)phenyl)amino)-8,9-dihydroimidazo[1,2-a]pyrimido[5,4-e]pyrimidin-5(6H)-one] | 328 | 59.2 | 97 | 22 | 75 |  |  |  |  |
| CN1CCN(c2ccc(Nc3ncc4c(n3)N3CCN=C3N(c3c(Cl)cccc3Cl)C4=O)cc2C(F)(F)F)CC1 [Example 73, 6-(2,6-Dichlorophenyl)-2-((4-(4-methylpiperazin-1-yl)-3-(trifluoromethyl)phenyl)amino)-8,9-dihydroimidazo[1,2-a]pyrimido[5,4-e]pyrimidin-5(6H)-one] |  | 194 | 83 |  |  | 1430 |  |  |  |
| C[C@@H]1CN(c2ccc(Nc3ncc4c(n3)N3CCN=C3N(c3c(Cl)cccc3Cl)C4=O)cc2C(F)(F)F)C[C@H](C)N1C [Example 74, 6-(2,6-Dichlorophenyl)-2-((3-trifluoromethyl-4-((3S,5R)-3,4,5-trimethylpiperazin-1-yl)phenyl)amino)-8,9-dihydroimidazo[1,2-a]pyrimido[5,4-e]pyrimidin-5(6H)-one] |  | 182 | 98 | 15 | 61 | 708 |  |  |  |
| Cc1cc(Nc2ncc3c(n2)N2CCN=C2N(c2c(Cl)cccc2Cl)C3=O)ccc1N1CCN(C)CC1 [Example 75, 6-(2,6-Dichlorophenyl)-2-((3-methyl-4-(4-methylpiperazin-1-yl)phenyl)amino)-8,9-dihydroimidazo[1,2-a]pyrimido[5,4-e]pyrimidin-5(6H)-one] |  | 40.2 | 100 | 24 | 80 | 161 |  | stronger inhibitory effect on the growth of NCI-H1299 cells than AZD1775 | stronger inhibitory effect on the growth of LoVo cells than AZD1775 |
| Cc1cc(Nc2ncc3c(n2)N2CCN=C2N(c2c(Cl)cccc2Cl)C3=O)ccc1N1CCN(C(C)C)CC1 [Example 76, 6-(2,6-Dichlorophenyl)-2-((4-(4-isopropylpiperazin-1-yl)-3-methylphenyl)amino)-8,9-dihydroimidazo[1,2-a]pyrimido[5,4-e]pyrimidin-5(6H)-one] |  | 48.8 | 97 | 22 | 74 | 198 |  |  |  |
| Cc1cc(Nc2ncc3c(n2)N2CCN=C2N(c2c(Cl)cccc2Cl)C3=O)ccc1N1C[C@@H](C)N(C)[C@@H](C)C1 [Example 77, 6-(2,6-Dichlorophenyl)-2-((3-methyl-4-((3S,5R)-3,4,5-trimethylpiperazin-1-yl)phenyl)amino)-8,9-dihydroimidazo[1,2-a]pyrimido[5,4-e]pyrimidin-5(6H)-one] |  | 52.4 | 88 | 11 | 86 | 217 |  |  |  |
| Cc1cc(Nc2ncc3c(n2)N2CCN=C2N(c2c(Cl)cccc2Cl)C3=O)ccc1N1C[C@@H](C)N(C(C)C)[C@@H](C)C1 [Example 78, 6-(2,6-Dichlorophenyl)-2-((4-((3S,5R)-4-isopropyl-3,5-dimethylpiperazin-1-yl)-3-methylphenyl)amino)-8,9-dihydroimidazo[1,2-a]pyrimido[5,4-e]pyrimidin-5(6H)-one] |  | 41.4 | 100 | 29 | 77 | 149 |  |  |  |
| CN1CCn2nc(Nc3ncc4c(n3)N3CCN=C3N(c3c(Cl)cccc3Cl)C4=O)cc2C1 [Example 79, 6-(2,6-Dichlorophenyl)-2-((5-methyl-4,5,6,7-tetrahydropyrazolo[1,5-a]pyrazin-2-yl)amino)-8,9-dihydroimidazo[1,2-a]pyrimido[5,4-e]pyrimidin-5(6H)-one] | > 10000 | > 100000 | 69 |  |  |  |  |  |  |

— patent US11345711B2, “8,9-dihydroimidazo[1,2-a]pyrimido[5,4-e]pyrimidin-5(6H)-ones” (IMPACT THERAPEUTICS (SHANGHAI), INC, priority 2016, dated 2022)
